In patent publication US8808760B2, “Extract from palm leaves and a method for producing the same” (Universiti Putra Malaysia, priority 2007, dated 2014):

Key:
[1] = system: SHR (spontaneous/genetically hypertensive animals); test: Organ antioxidant enzymes (kidney, heart, brain), SHR; assay type: in vivo, rats
Source text: SOD, GSH-Px, and CAT is the first line of antioxidative enzyme defense against oxidative stress, converting reactive oxygen to hydrogen peroxide and water.

[2] = system: SHR (spontaneously/genetically hypertensive rats); test: Morphology (body, kidney, heart weight), SHR; assay type: in vivo; settings: mean ± SEM
normotensive animals [3] = test: Erythrocyte antioxidant enzymes (SOD, GSH-Px, CAT), normotensive animals; assay type: in vivo, rats
L-NAME rats = test: Serum nitric oxide, L-NAME rats; assay type: in vivo; parameters: unit not given here
normotensive animals [4] = test: Morphology (body, kidney, heart weight), normotensive rats; assay type: in vivo; settings: mean ± SEM
Source text: (§1) The organ protective properties of the palm leaves extract and palm leaves functional ingredients on heart, and kidneys are shown in the morphology Table 4 below. […] Kidney/BW were similar in all groups. […] However, in L-NAME+captopril rats had lower Heart/BW ratio versus L-NAME.

[5] = system: SHR (spontaneous/genetically hypertensive animals); test: Erythrocyte antioxidant enzymes (SOD, GSH-Px, CAT), SHR; assay type: in vivo, rats
Source text: SOD, GSH-Px, and CAT is the first line of antioxidative enzyme defense against oxidative stress, converting reactive oxygen to hydrogen peroxide and water. SOD, GSH-Px, and CAT […] activity indicate […] oxidative stress in hypertensive animals supplemented with oil palm leaves extract.

[6] = system: SHR (spontaneously hypertensive rats); test: Serum nitric oxide, SHR; assay type: in vivo; parameters: unit not given here
[7] = system: L-NAME induced hypertensive rats; test: Morphology (body, kidney, heart weight), L-NAME rats; assay type: in vivo; settings: mean ± SEM
Source text: as §1

normotensive rats = test: Serum nitric oxide, normotensive rats; assay type: in vivo; parameters: unit not given here

C[C@H](CS)C(=O)N1CCC[C@H]1C(=O)O [Captopril, captopril]
Organ Catalase ([1]; Heart): 4.08 ± 0.458 k/mg protein | Organ CuZn-SOD ([1]; Heart): 0.78 ± 0.301 U/mg protein | Organ GPx ([1]; Heart): 3.20 ± 0.23 U/mg protein | Organ Catalase ([1]; Kidney): 25.96 ± 2.04 k/mg protein | Organ CuZn-SOD ([1]; Kidney): 0.80 ± 0.199 U/mg protein | Organ GPx ([1]; Kidney): 2.02 ± 0.184 U/mg protein | Organ Catalase ([1]; brain): 1.96 ± 0.27 k/mg protein | Organ CuZn-SOD ([1]; brain): 1.26 ± 0.097 U/mg protein | Organ GPx ([1]; brain): 2.87 ± 0.360 U/mg protein | Final body weight [2]: 259.09 ± 5.53 g | Heart [2]: 1.16 ± 0.07 g | Heart/Body weight [2]: 4.533 ± 0.0002 mg/g | Kidney [2]: 2.074 ± 0.09 g | Kidney/Body Weight [2]: 8.139 ± 0.0004 mg/g | Erythrocyte Catalase (normotensive animals [3]; Week 0): 0.014 ± 0.0006 k/ml | Erythrocyte CuZn-SOD (normotensive animals [3]; Week 0): 0.014 ± 0.0010 U/ml | Erythrocyte Glutathione Peroxidase (normotensive animals [3]; Week 0): 16.5 ± 0.76 | Erythrocyte Catalase (normotensive animals [3]; Week 6): 0.013 ± 0.0003 k/ml | Erythrocyte CuZn-SOD (normotensive animals [3]; Week 6): 0.022 ± 0.0006 U/ml | Erythrocyte Glutathione Peroxidase (normotensive animals [3]; Week 6): 21.1 ± 5.05 | Erythrocyte Catalase (normotensive animals [3]; Week 8): 0.014 ± 0.0005 k/ml | Erythrocyte CuZn-SOD (normotensive animals [3]; Week 8): 0.015 ± 0.0019 U/ml | Erythrocyte Glutathione Peroxidase (normotensive animals [3]; Week 8): 9.3 ± 1.24 | Erythrocyte Catalase (normotensive animals [3]; Week 12): 0.013 ± 0.0008 k/ml | Erythrocyte CuZn-SOD (normotensive animals [3]; Week 12): 0.018 ± 0.0006 U/ml | Erythrocyte Glutathione Peroxidase (normotensive animals [3]; Week 12): 26.2 ± 6.90 | nitric oxide values measured in serum (L-NAME rats; Week 0): 0.402 ± 0.008 | nitric oxide values measured in serum (L-NAME rats; Week 6): 0.585 ± 0.082 | nitric oxide values measured in serum (L-NAME rats; Week 8): 0.742 ± 0.123 | nitric oxide values measured in serum (L-NAME rats; Week 12): 0.44 ± 0.072 | Final body weight (normotensive animals [4]): 291.4 ± 8.56 g | Heart (normotensive animals [4]): 1.02 ± 0.04 g | Heart/Body weight (normotensive animals [4]): 3.558 ± 0.0002 mg/g | Kidney (normotensive animals [4]): 2.140 ± 0.07 g | Kidney/Body Weight (normotensive animals [4]): 7.370 ± 0.0003 mg/g | Erythrocyte Catalase ([5]; Week 0): 0.019 ± 0.0007 k/ml | Erythrocyte CuZn-SOD ([5]; Week 0): 0.019 ± 0.0012 U/ml | Erythrocyte Glutathione Peroxidase ([5]; Week 0): 31.47 ± 0.94 | Erythrocyte Catalase ([5]; Week 6): 0.017 ± 0.0003 k/ml | Erythrocyte CuZn-SOD ([5]; Week 6): 0.009 ± 0.0012 U/ml | Erythrocyte Glutathione Peroxidase ([5]; Week 6): 12.69 ± 2.47 | Erythrocyte Catalase ([5]; Week 8): 0.017 ± 0.0004 k/ml | Erythrocyte CuZn-SOD ([5]; Week 8): 0.011 ± 0.0004 U/ml | Erythrocyte Glutathione Peroxidase ([5]; Week 8): 28.77 ± 2.05 | Erythrocyte Catalase ([5]; Week 12): 0.016 ± 0.0003 k/ml | Erythrocyte CuZn-SOD ([5]; Week 12): 0.012 ± 0.0007 U/ml | Erythrocyte Glutathione Peroxidase ([5]; Week 12): 34.63 ± 2.2 | nitric oxide values measured in serum ([6]; Week 0): 0.230 ± 0.02 | nitric oxide values measured in serum ([6]; Week 6): 0.425 ± 0.05 | nitric oxide values measured in serum ([6]; Week 8): 0.438 ± 0.08 | nitric oxide values measured in serum ([6]; Week 12): 0.572 ± 0.02 + | Final body weight [7]: 296.4 ± 5.97 g | Heart [7]: 0.91 ± 0.07 g | Heart/Body weight [7]: 3.096 ± 0.0003 mg/g | Kidney [7]: 2.017 ± 0.07 g | Kidney/Body Weight [7]: 6.822 ± 0.0002 mg/g | nitric oxide values measured in serum (normotensive rats; Week 0): 0.381 ± 0.023 | nitric oxide values measured in serum (normotensive rats; Week 6): 0.573 ± 0.024 | nitric oxide values measured in serum (normotensive rats; Week 8): 0.455 ± 0.060 | nitric oxide values measured in serum (normotensive rats; Week 12): 0.525 ± 0.071
